# Reference: patent US20240269170A1, “Treatment of Inflammatory Conditions or Diseases” (Queen Mary University of London, priority 2021, published 2024)
# System: G6PI peptide induced arthritis in DBA/1 mice
# Test: G6PI peptide induced arthritis, transfer of monocytes from naive mice pre-incubated with MCTR3
# Type: in vivo, mouse
# Conditions: monocytes incubated with 10 μM RG108 for 15 min before 1 nM MCTR3
# Method: FIG. 3: MCTR3 reprograms monocyte responses to reduce inflammation and repair inflamed joints. (A-B) Antigen induced arthritis was initiated by administering G6PI peptide (10 μg/mouse) in CFA via intradermal injection to DBA/1 mice. After 25 days mice were treated with 0.5×10^6 monocytes from naive mice that had been pre-incubated with vehicle (PBS+0.1% EtOH) or 1 nM MCTR3 for 90 min at 37° C. via i.v. injection. Disease course was monitored daily by assessing A) clinical scores and B) oedema. Results are mean±SEM and expressed as percent change from day of treatment n=5 per group from two separate experiments. Results are mean±SEM. Statistical differences were calculated using a Two-way ANOVA.
# FIG. 11: DNA methyltransferase inhibition prevents MCTR3 reprogramming of protective monocyte responses. […] Disease course was assessed by evaluating A) clinical scores and B) oedema relative to the day of treatment. Results are mean±SEM and expressed as percentage change from day of treatment. n=5 per group and statistics were calculated using a Two-way ANOVA. […]
smiles,measurement,value
O=C(O)C(Cc1c[nH]c2ccccc12)N1C(=O)c2ccccc2C1=O (stereo not shown) [RG108],protective actions of MCTR3 (ability of reprogrammed monocytes to regulate joint inflammation),abolished
